Reference: patent publication US20230303547A1, “N-CYANOPYRROLIDINES WITH ACTIVITY AS USP30 INHIBITORS” (MISSION THERAPEUTICS LIMITED, priority 2020, published 2023)
In brackets after ≈: the same amount, converted by molar mass.

Legend:
Cathepsin L = Cathepsin L (Homo sapiens (Human), UniProt P07711); assay: Cathepsin L IC50; format: biochemical
Endogenous USP30 = Endogenous USP30 (Homo sapiens (Human), UniProt Q70CQ3); assay: USP30 endogenous cellular target engagement assay (Cell TE WB); format: cell-based; conditions: Hela cells stably overexpressing YFP-Parkin, 1 hour
Endogenous USP30, sequence (Q70CQ3 whole entry): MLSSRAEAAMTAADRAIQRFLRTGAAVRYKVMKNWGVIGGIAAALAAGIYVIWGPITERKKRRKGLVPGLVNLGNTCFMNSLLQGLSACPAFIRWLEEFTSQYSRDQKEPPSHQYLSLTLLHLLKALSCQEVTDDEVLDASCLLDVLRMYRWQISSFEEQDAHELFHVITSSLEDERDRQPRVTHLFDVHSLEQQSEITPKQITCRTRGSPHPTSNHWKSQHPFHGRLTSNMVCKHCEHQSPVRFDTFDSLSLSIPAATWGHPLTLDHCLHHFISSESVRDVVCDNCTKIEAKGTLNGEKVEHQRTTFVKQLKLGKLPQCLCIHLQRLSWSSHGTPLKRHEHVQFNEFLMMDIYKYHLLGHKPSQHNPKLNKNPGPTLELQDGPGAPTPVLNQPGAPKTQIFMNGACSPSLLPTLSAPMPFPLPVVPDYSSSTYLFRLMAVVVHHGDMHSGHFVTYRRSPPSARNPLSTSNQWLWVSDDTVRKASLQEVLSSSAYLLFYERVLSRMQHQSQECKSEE
Description: USP30 is a transmembrane protein located in the outer membrane of mitochondria, which are energy-producing organelles present inside cells. […] The USP30 cellular western blot (WB) assay described herein aims to test the activity of compounds against USP30 in cells using an irreversible activity probe to monitor USP30 activity. Analogously to the cellular western blot assay, target engagement assessment (ex vivo) may be carried out in either brain or kidney tissue samples from compound-dosed animals. To extend target binding knowledge to downstream pharmacodynamics, assessment of TOM20 (an outer mitochondrial membrane protein) ubiquitylation may be made.
Hela cells stably overexpressing YFP-Parkin were seeded into 6 well dishes. Once adhered, cells were treated with appropriate concentrations of test compounds or vehicle control for 1 hour at 37° C., 5% CO2. […] USP30 was detected using an anti-USP30 Sheep S746D antibody (MRC PPU Reagents and Services) and a rabbit anti sheep secondary IgG (H+L) horseradish peroxidase conjugated (Thermo #31480) and visualised using ECL reagent (GE #RPN2109) on a GE LAS4000 imager. Target engagement was measured by quantitation of the bands corresponding to USP30 and USP30 bound to the Ub-VME probe and expression of this proportion compared to vehicle treated control.

Mouse plasma stability = format: in vitro ADME; conditions: read-out: Stability Mouse plasma t½
Description: Other parameters that may be measured using standard assays that are indicative of a compound’s exposure profile include, for example plasma stability (half-life measurement), blood AUC, Cmax, Cmin and Tmax values.

UCHL1 = UCHL1 (Homo sapiens (Human), UniProt P09936); assay: UCHL1 DUB IC50; format: biochemical
UCHL1, sequence (P09936 whole entry, species assumed): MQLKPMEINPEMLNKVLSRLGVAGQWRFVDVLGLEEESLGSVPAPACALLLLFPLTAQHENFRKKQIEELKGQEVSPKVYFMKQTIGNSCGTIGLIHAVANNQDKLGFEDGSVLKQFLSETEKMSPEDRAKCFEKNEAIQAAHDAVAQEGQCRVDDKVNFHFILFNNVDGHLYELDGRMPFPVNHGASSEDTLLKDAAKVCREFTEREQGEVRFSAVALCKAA

PK mouse 10 mg/kg po = format: in vivo; conditions: for Unbound plasma Cmax/TOM20-Ub cell potency: 10 mg/kg po dose - mouse; for Oral F: mouse, 10 mg/kg
Description: Oral F: Oral bioavailability.

Hepatocyte Cl human = format: in vitro ADME; conditions: human hepatocytes
Procedure: Hep Cl human: in vitro hepatocyte clearance in human cells.
(§1) Clu: in vitro clearance. Clu as defined here is the scaled clearance, in turn calculated from the intrinsic clearance. The intrinsic clearance is the predicted clearance due to hepatic metabolic reactions, determined from incubation of a compound in a hepatocyte preparation.

Hepatocyte Cl mouse = format: in vitro ADME; conditions: mouse hepatocytes
Procedure: Hep Cl mouse: in vitro hepatocyte clearance in mouse cells.
as §1

Cathepsin V = Cathepsin V (Homo sapiens (Human), UniProt O60911); assay: Cathepsin V IC50; format: biochemical
Cathepsin V, sequence (O60911 114-334, species assumed): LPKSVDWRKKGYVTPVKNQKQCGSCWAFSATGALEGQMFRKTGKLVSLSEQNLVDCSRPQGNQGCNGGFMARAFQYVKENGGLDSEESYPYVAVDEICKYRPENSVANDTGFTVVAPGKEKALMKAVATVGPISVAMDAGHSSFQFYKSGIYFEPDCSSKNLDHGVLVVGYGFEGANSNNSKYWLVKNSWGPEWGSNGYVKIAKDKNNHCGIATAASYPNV

Turbidimetric solubility = format: physicochemical; conditions: aqueous buffer, kinetic from dmso stock
Description: The solubility of a compound is an important factor in achieving a desired concentration of drug in systemic circulation for the anticipated pharmacological response. Low aqueous solubility is a problem encountered with formulation development of new chemical entities and to be absorbed a drug must be present in the form of solution at the site of absorption. The kinetic solubility of a compound may be measured using a turbidimetric solubility assay, the data from which may also be used in conjunction with Caco-2 permeability data to predict dose dependent human intestinal absorption.
Turbidimetric solubility: Test compound solution prepared in DMSO diluted into aqueous buffer. Turbidimetry is used as the end-point by measuring absorbance at 620 nm.

[1] = Brain homogenate free fraction by equilibrium dialysis; format: in vitro ADME; conditions: mouse brain homogenate; read-out: Binding Mouse Brain fu,br
Description: Brain fu,br: The free fraction of a compound in brain homogenate preparation determined by in vitro equilibrium dialysis.

Log D = format: physicochemical; conditions: pH 7.4; read-out: Log D measured at pH 7.4
Description: log D: distribution co-efficient; lipophilicity measurement.

Cathepsin K = Cathepsin K (Homo sapiens (Human), UniProt P43235); assay: Cathepsin K IC50; format: biochemical
Cathepsin K, sequence (P43235 115-329, species assumed): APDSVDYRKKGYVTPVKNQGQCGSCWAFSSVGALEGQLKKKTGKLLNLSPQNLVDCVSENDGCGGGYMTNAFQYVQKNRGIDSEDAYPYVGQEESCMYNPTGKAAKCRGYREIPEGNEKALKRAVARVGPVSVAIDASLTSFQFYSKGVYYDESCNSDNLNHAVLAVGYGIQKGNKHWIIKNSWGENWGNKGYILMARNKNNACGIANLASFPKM

Cathepsin B = Cathepsin B (Homo sapiens (Human), UniProt P07858); assay: Cathepsin B IC50; format: biochemical
Cathepsin S = Cathepsin S (Homo sapiens (Human), UniProt P25774); assay: Cathepsin S IC50; format: biochemical
Cathepsin S, sequence (P25774 115-331, species assumed): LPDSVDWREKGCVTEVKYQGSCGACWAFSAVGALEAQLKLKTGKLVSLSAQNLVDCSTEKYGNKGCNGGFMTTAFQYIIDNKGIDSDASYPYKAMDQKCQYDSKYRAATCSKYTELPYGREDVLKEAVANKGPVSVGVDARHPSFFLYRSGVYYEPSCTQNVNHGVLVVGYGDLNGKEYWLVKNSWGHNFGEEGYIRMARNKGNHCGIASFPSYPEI

[2] = tested on: HCT116 human colorectal carcinoma cells; assay: In vitro cytotoxicity (Cell Tox), alamarBlue; format: cell-based; conditions: 96-hour continual compound exposure
Description: There is also a need for compounds that have a favourable safety profile, which may be measured by a variety of standard in vitro and in vivo methods. A cell toxicity counter-screen may be used to assay the anti-proliferative/cytotoxic effect in a particular cell line (e.g. HCT116) by fluorometric detection of rezasurin (alamarBlue™) to resofurin in response to mitochondrial activity.
In Vitro Cytotoxicity (Cell Tox): Measured in HCT116 human colorectal carcinoma cells using alamarBlue™ as the assay endpoint. Compound cytotoxicity was measured over a period of 96-hour continual compound exposure.

[3] = Plasma free fraction by equilibrium dialysis; format: in vitro ADME; conditions: mouse plasma; read-out: Binding Mouse Plasma fu,p
Description: Plasma fu,p: The free fraction of a compound in plasma preparation determined by in vitro equilibrium dialysis.

PK mouse 2 mg/kg iv = format: in vivo; conditions: for Kp uu: brain and plasma (unbound), 2 mg/kg IV dose - mouse; for clearance: plasma, mouse, 2 mg/kg iv, read-out: Cl plasma
Description: Cl in vivo clearance: Pharmacokinetic measurement of the volume of plasma (or any matrix) from which a substance is completely removed per unit time.
Kpuu is the ratio of unbound drug in brain to unbound drug in plasma and may be indicative of potential for treating peripheral and/or CNS indications.

Cathepsin L, sequence (P07711 114-333, species assumed): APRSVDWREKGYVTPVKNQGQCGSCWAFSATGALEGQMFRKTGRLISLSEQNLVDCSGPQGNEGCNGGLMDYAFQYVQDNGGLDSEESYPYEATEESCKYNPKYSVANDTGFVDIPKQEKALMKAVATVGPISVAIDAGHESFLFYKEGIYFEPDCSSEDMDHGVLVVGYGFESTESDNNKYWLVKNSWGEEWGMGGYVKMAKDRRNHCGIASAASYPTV

Row | Compound | IC50 (Cathepsin L) [µM] | EC50 (Endogenous USP30) [µM] | half-life (Mouse plasma stability) [h] | IC50 (UCHL1) [µM] | Unbound plasma Cmax/TOM20-Ub cell potency (PK mouse 10 mg/kg po) | Oral F (PK mouse 10 mg/kg po) [%] | Hepatocyte Cl human Scaled Clu (Hepatocyte Cl human) [mL/min/kg] | Hepatocyte Cl mouse Scaled Clu (Hepatocyte Cl mouse) [mL/min/kg] | IC50 (Cathepsin V) [µM] | solubility (Turbidimetric solubility) [µM] | fraction unbound [1] | logD (Log D) | IC50 (Cathepsin K) [µM] | IC50 (Cathepsin B) [µM] | IC50 (Cathepsin S) [µM] | EC50 ([2]; Homo sapiens, HCT-116, 96 h) [µM] | fraction unbound [3] | Kp uu (PK mouse 2 mg/kg iv) | clearance (PK mouse 2 mg/kg iv) [mL/min/kg] | EC50 [2] [µM]
1 | C[C@@H]1C[C@@H](NC(=O)c2ncc(-c3cc(C#N)ccc3OC3CC3)o2)CN1C#N [Example 1, 5-(5-cyano-2-cyclopropoxyphenyl)-N-((3R,5R)-1-cyano-5-methylpyrrolidin-3-yl)oxazole-2-carboxamide] | 9.9 | 0.002 | > 2 | > 300 | 45 | 37 | 18.6 | 117 | 30.9 | 65 (≈ 24.5 µg/mL) | 0.06 | 2.5 | 10.5 | 107 | 54.4 | 23.8 | 0.09 | 0.02 | 41 | –
2 | COC[C@@H]1C[C@@H](NC(=O)c2ncc(-c3cc(C#N)ccc3OC3CC3)o2)CN1C#N [Example 2, 5-(5-cyano-2-cyclopropoxyphenyl)-N-((3R,5S)-1-cyano-5-(methoxymethyl)pyrrolidin-3-yl)oxazole-2-carboxamide] | 23.6 | 0.003 | > 2 | > 300 | 140 | 47 | 5.0 | 105 | 60.6 | > 100 | 0.2 | 2.2 | 18.9 | > 300 | 91.2 | 27.1 | 0.07 | 0.01 | 20 | > 30
